Data taken from patent US4292309A, “Antibiotics C-14482 B1, B2 and B3” (Takeda Chemical Industries, Ltd., priority 1979, dated 1981).
Converted amounts (≈) assume the structure as drawn. Like-named read-outs stand apart in the source and are kept apart here.

Assays:
Strain IFO 13725 = assay: Susceptibility toward antibiotic (minimum inhibition concentration); assay type: cell-based, Nocardia sp. No. C-14482; conditions: Nocardia
From the text: (§1) For example, a conventional mutagenesis effected with the strain IFO 13725 as the parent strain yields the strain IFO 13887, a variant capable of producing advantageously Antibiotic C-14482 B. This strain has the capability to produce C-14482 B in increased quantities as compared with the parent strain thereof, and is similar in taxonomical characteristics to the parent strain, except the physiological properties shown in Table 4.

Strain IFO 13887 = assay: as above; assay type: cell-based, Nocardia sp. No. C-14482; conditions: Nocardia
From the text: as §1

[1] = IFO13725, Strain IFO 13725, read-out: minimum inhibition concentration
[2] = IFO13887, Strain IFO 13887, read-out: minimum inhibition concentration

SMILES	MIC (Strain IFO 13725; [1]) [µg/mL]	MIC (Strain IFO 13887; [2]) [µg/mL]	MIC (Strain IFO 13725; IFO13725, read-out: minimum inhibition concentration) [µg/mL]	MIC (Strain IFO 13887; IFO13887, read-out: minimum inhibition concentration) [µg/mL]
O=C(N[C@H](CO)[C@H](O)c1ccc([N+](=O)[O-])cc1)C(Cl)Cl [Chloramphenicol]	10 (≈ 30.9 µM)	5 (≈ 15.5 µM)		
CCC[C@@H]1C[C@@H](C(=O)N[C@@H]([C@H]2O[C@H](SC)[C@H](O)[C@@H](O)[C@H]2O)[C@@H](C)O)N(C)C1 [Lincomycin]	5 (≈ 12.3 µM)	20 (≈ 49.2 µM)		
CC1(C)S[C@@H]2[C@H](NC(=O)Cc3ccccc3)C(=O)N2[C@H]1C(=O)O [Penicillin G]	10 (≈ 29.9 µM)	50 (≈ 150 µM)		
CO[C@H]1/C=C/O[C@@]2(C)Oc3c(C)c(O)c4c(O)c(c(/C=N/N5CCN(C)CC5)c(O)c4c3C2=O)NC(=O)/C(C)=C\C=C\[C@H](C)[C@H](O)[C@@H](C)[C@@H](O)[C@@H](C)[C@H](OC(C)=O)[C@@H]1C [Rifampicin]	< 0.1	< 0.1		
[H]/N=C(/N)N[C@H]1[C@H](O)[C@@H](O)[C@H](O[C@@H]2O[C@@H](C)[C@](O)(C=O)[C@H]2O[C@@H]2O[C@@H](CO)[C@H](O)[C@@H](O)[C@@H]2NC)[C@@H](N/C(N)=N\[H])[C@@H]1O [Streptomycin]	1 (≈ 1.72 µM)	5 (≈ 8.6 µM)		
CN(C)C1C(=O)C(C(N)=O)=C(O)C2(O)C(=O)C3=C(O)c4c(O)cccc4C(C)(O)C3CC12 (stereo not drawn) [Tetracycline]			0.5 (≈ 1.13 µM)	1 (≈ 2.25 µM)
